ChEMBL document CHEMBL1909046, “DrugMatrix in vitro pharmacology data”

Experiments:
Substance-P receptor = Substance-P receptor (Homo sapiens, UniProt P25103); format: cell membranes, Membrane; details: cho; further: in other assays of this panel Not Active means under 50% inhibition at 10 µM
D(1A) dopamine receptor = D(1A) dopamine receptor (Homo sapiens, UniProt P21728); test: DRUGMATRIX: Dopamine D1 radioligand binding (ligand: [3H] SCH-23390); format: cell membranes, Membrane; details: cho; Not Active = under 50% inhibition at 10 µM
Sequence of D(1A) dopamine receptor (P21728 whole entry): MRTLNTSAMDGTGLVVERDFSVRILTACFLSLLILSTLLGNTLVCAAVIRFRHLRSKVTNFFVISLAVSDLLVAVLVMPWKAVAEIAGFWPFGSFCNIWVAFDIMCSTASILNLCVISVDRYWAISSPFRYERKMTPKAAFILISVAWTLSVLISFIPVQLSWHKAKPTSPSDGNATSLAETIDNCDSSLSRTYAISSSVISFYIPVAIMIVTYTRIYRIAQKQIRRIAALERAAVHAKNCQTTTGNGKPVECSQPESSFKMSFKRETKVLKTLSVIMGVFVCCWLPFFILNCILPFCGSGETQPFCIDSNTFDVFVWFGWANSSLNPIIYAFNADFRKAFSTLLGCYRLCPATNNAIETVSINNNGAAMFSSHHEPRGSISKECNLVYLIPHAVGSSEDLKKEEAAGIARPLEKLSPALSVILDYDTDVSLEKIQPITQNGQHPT

[1] = target: T1, Alpha-2A adrenergic receptor (Homo sapiens, UniProt P08913); format: cell membranes, Sf9, Membrane; further: in other assays of this panel Not Active means under 50% inhibition at 10 µM
T1 sequence (P08913 whole entry): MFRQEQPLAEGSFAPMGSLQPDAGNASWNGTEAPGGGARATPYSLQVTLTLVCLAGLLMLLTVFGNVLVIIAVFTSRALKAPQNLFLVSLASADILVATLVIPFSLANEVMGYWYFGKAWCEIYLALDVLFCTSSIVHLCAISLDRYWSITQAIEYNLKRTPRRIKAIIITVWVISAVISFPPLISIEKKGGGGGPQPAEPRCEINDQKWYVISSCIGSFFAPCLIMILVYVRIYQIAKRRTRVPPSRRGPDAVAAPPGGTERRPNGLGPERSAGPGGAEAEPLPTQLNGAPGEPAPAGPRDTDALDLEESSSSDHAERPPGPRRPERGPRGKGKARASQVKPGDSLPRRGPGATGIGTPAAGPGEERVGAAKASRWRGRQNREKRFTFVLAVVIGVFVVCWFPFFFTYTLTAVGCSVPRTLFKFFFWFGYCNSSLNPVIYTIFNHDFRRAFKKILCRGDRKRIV

[2] = target: 5-hydroxytryptamine receptor 4 (Cavia porcellus, UniProt O70528); format: cell membranes, Dunkin-Hartley, Striatum, Membrane; further: in other assays of this panel Not Active means under 50% inhibition at 10 µM
Sequence of 5-hydroxytryptamine receptor 4 (O70528 whole entry): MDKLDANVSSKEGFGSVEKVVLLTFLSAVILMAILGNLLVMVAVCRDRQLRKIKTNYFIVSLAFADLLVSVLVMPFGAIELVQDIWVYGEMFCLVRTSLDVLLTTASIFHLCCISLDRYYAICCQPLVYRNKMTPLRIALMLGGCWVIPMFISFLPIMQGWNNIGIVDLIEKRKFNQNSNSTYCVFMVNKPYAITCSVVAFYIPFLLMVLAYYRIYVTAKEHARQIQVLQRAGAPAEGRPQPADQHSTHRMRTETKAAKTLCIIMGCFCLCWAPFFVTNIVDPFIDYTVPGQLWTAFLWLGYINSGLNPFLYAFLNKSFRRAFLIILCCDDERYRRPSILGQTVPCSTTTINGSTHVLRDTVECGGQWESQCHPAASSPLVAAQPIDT

[3] = target: C-C chemokine receptor type 2 (Homo sapiens, UniProt P41597); format: cell membranes, CHO-K1, Membrane; details: cho-k1; further: in other assays of this panel Not Active means under 50% inhibition at 10 µM
Sequence of C-C chemokine receptor type 2 (P41597 whole entry): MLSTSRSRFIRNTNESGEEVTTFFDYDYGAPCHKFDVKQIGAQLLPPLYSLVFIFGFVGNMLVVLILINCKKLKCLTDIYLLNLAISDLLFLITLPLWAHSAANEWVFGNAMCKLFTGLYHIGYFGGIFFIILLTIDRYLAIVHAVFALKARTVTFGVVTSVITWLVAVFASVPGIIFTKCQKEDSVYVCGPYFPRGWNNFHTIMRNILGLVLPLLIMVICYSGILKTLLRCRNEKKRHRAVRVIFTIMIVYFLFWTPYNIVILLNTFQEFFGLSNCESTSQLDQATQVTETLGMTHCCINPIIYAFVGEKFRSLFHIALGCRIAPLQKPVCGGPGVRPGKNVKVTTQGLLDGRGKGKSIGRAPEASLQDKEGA

[4] = DRUGMATRIX: Serotonin (5-Hydroxytryptamine) 5-HT3 radioligand binding (ligand: [3H] GR-65630); format: cell membranes, Membrane; details: hek293; Not Active = under 50% inhibition at 10 µM
Insulin receptor = Insulin receptor (Rattus norvegicus, UniProt P15127); format: cell membranes, Wistar, Liver, Membrane; further: in other assays of this panel Not Active means under 50% inhibition at 10 µM
Sequence of Insulin receptor (P15127 27-759 limits assumed): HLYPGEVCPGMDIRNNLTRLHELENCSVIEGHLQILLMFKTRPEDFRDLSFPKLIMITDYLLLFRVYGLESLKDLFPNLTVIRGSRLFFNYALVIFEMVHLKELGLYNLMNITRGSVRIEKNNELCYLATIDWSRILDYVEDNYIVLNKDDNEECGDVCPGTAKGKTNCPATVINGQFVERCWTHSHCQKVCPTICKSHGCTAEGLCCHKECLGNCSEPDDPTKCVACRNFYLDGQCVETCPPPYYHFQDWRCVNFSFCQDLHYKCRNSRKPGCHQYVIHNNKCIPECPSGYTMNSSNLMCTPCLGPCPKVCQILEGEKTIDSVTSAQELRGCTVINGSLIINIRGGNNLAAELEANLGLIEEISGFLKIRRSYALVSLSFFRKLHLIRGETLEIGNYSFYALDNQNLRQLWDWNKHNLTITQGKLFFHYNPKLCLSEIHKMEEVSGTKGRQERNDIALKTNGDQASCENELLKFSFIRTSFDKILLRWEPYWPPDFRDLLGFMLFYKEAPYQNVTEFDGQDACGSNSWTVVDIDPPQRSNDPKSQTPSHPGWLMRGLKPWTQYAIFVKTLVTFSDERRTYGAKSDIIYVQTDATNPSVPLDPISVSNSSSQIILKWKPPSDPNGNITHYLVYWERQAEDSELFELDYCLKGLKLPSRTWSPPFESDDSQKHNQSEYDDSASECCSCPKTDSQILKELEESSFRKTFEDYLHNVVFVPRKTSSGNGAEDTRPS
Sequence of Insulin receptor (P15127 764-1383 limits assumed): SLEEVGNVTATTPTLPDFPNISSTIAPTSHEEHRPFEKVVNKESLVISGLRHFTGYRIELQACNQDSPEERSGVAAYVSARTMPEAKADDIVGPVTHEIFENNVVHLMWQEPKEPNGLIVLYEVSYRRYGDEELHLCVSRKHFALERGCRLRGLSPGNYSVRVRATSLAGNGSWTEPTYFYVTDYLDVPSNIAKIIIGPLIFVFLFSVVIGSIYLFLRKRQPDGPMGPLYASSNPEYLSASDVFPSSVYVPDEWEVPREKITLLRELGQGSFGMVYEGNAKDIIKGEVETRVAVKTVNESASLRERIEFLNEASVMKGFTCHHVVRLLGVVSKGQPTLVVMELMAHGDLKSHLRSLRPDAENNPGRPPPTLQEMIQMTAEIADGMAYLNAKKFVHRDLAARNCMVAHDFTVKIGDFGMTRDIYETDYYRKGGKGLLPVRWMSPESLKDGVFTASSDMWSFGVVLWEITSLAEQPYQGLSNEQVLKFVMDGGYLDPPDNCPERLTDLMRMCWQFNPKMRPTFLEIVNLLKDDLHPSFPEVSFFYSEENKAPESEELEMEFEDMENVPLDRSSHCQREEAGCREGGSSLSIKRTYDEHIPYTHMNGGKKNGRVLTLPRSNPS

[5] = DRUGMATRIX: Nicotinic Acetylcholine radioligand binding (ligand: [125I] Epibatidine); format: cell membranes, Membrane; details: imr-32; Not Active = under 50% inhibition at 10 µM
[6] = target: 5-hydroxytryptamine receptor 1B (Rattus norvegicus, UniProt P28564); format: cell membranes, Wistar, Cerebral cortex, Membrane; details: for Ki: read-out: Ki
Sequence of 5-hydroxytryptamine receptor 1B (P28564 whole entry): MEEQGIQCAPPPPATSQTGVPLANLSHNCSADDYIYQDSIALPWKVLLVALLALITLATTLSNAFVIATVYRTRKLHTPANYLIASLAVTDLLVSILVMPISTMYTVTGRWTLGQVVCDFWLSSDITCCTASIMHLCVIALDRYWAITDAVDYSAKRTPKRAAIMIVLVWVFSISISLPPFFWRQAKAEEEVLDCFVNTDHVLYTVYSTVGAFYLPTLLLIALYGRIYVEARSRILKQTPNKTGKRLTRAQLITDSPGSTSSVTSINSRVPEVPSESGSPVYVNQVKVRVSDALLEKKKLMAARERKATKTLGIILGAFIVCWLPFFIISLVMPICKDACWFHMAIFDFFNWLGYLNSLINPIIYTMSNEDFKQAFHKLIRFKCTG

[7] = target: Aldo-keto reductase family 1 member B1 (Rattus norvegicus, UniProt P07943); test: biochemical; format: tissue-based, Lens of camera-type eye
[8] = DRUGMATRIX: Interleukin IL-1 radioligand binding (ligand: [125I] interleukin 1beta); format: cell membranes, Membrane; details: nih3t3; Not Active = under 50% inhibition at 10 µM

Sequence of Substance-P receptor (P25103 whole entry): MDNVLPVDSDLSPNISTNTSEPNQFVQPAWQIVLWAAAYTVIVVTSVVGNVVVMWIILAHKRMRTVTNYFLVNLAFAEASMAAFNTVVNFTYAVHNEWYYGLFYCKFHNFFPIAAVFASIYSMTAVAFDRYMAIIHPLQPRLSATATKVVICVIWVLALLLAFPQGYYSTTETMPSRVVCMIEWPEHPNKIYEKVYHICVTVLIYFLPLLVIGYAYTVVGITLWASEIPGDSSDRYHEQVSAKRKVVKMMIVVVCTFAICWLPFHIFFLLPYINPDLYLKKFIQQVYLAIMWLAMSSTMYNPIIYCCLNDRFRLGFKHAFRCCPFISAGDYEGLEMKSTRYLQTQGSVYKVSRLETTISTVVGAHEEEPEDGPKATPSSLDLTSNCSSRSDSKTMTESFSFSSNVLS

SMILES	IC50 (Substance-P receptor)	IC50 (D(1A) dopamine receptor)	IC50 ([1]; sf9)	IC50 [2]	IC50 [3]	IC50 [4]	Ki [4]	IC50 (Insulin receptor)	IC50 [5]	Ki [5]	IC50 [6]	IC50 ([7]; read-out: IC50) [nM]	IC50 [8]	Ki [8]	IC50 [7]	IC50 ([6]; read-out: IC50) [nM]	Ki [6] [nM]	IC50 ([1]; read-out: IC50) [nM]	Ki ([1]; read-out: Ki) [nM]
CC1=C(CC(=O)O)c2cc(F)ccc2/C1=C\c1ccc([S+](C)[O-])cc1 (stereo unspecified)	Not Active	Not Active	Not Active	Not Active	Not Active	Not Active	Not Active	Not Active	Not Active	Not Active	Not Active	435	Not Active	Not Active					
N[C@H](CSC(=S)NCc1ccccc1)C(=O)O	Not Active	Not Active	Not Active	Not Active	Not Active	Not Active	Not Active	Not Active	Not Active	Not Active	Not Active		Not Active	Not Active	Not Active				
CC(=O)N[C@@H]1[C@H](Oc2c3cc4cc2Oc2ccc(cc2Cl)[C@@H](O[C@@H]2O[C@@H](CO)[C@@H](O)[C@H](O)[C@@H]2NC(C)=O)[C@@H]2NC(=O)[C@H](NC(=O)[C@@H]4NC(=O)[C@H]4NC(=O)[C@@H](Cc5ccc(c(Cl)c5)O3)NC(=O)[C@H](N)c3ccc(O)c(c3)Oc3cc(O)cc4c3)c3ccc(O)c(c3)-c3c(O[C@H]4O[C@H](CO)[C@@H](O)[C@@H](O)[C@@H]4O)cc(O)cc3[C@@H](C(=O)O)NC2=O)O[C@@H](CO)[C@@H](O)[C@@H]1O	Not Active	Not Active	Not Active	Not Active	Not Active	Not Active	Not Active	Not Active	Not Active	Not Active	Not Active		Not Active	Not Active	Not Active				
Clc1ccc2c(c1)C(N1CCNCC1)=Nc1ccccc1O2 [AMOXAPINE]	Not Active			Not Active	Not Active			Not Active			Not Active				Not Active				
COc1cc2c(c(OC)c1OC)-c1ccc(OC)c(=O)cc1[C@@H](NC(C)=O)CC2 [COLCHICINE]	Not Active		Not Active	Not Active	Not Active			Not Active			Not Active				Not Active				
CN1CCC(=C2c3ccccc3C=Cc3ccccc32)CC1 [CYPROHEPTADINE]	Not Active			Not Active	Not Active			Not Active							Not Active	2780	1260		
CC/C(=C(/CC)c1ccc(O)cc1)c1ccc(O)cc1 [DIETHYLSTILBESTROL]	Not Active			Not Active	Not Active			Not Active			Not Active				Not Active				
CC(=O)N1CCN(c2ccc(OCC3COC(Cn4ccnc4)(c4ccc(Cl)cc4Cl)O3)cc2)CC1 (stereo unspecified) [KETOCONAZOLE]	Not Active	Not Active		Not Active	Not Active	Not Active	Not Active	Not Active	Not Active	Not Active			Not Active	Not Active	Not Active	13500	6150	19800	7420
C=CCN1CC[C@]23c4c5ccc(O)c4O[C@H]2C(=O)CC[C@@]3(O)[C@H]1C5 [NALOXONE]	Not Active		Not Active	Not Active	Not Active			Not Active			Not Active				Not Active				
COCCOC(=O)C1=C(C)NC(C)=C(C(=O)OC(C)C)C1c1cccc([N+](=O)[O-])c1 (stereo unspecified) [NIMODIPINE]	Not Active	Not Active	Not Active	Not Active	Not Active	Not Active	Not Active	Not Active	Not Active	Not Active	Not Active		Not Active	Not Active	Not Active				
CC(C)NCC(O)COc1cccc2ccccc12 (stereo unspecified) [PROPRANOLOL]	Not Active		Not Active	Not Active	Not Active			Not Active			Not Active				Not Active				
COCCCOc1ccnc(C[S+]([O-])c2nc3ccccc3[nH]2)c1C (stereo unspecified) [RABEPRAZOLE]	Not Active	Not Active	Not Active	Not Active	Not Active	Not Active	Not Active	Not Active	Not Active	Not Active	Not Active		Not Active	Not Active	Not Active				
O=C(c1ccc(OCCN2CCCCC2)cc1)c1c(-c2ccc(O)cc2)sc2cc(O)ccc12 [RALOXIFENE]	Not Active			Not Active	Not Active	Not Active	Not Active	Not Active	Not Active	Not Active			Not Active	Not Active	Not Active	1860	846		
CNC(=C[N+](=O)[O-])NCCSCc1ccc(CN(C)C)o1 [RANITIDINE]	Not Active	Not Active	Not Active	Not Active	Not Active	Not Active	Not Active	Not Active	Not Active	Not Active	Not Active		Not Active	Not Active	Not Active				
CO[C@H]1/C=C/O[C@@]2(C)Oc3c(C)c(O)c4c(c3C2=O)C2=NC3(CCN(CC(C)C)CC3)NC2=C(NC(=O)/C(C)=C\C=C\[C@H](C)[C@H](O)[C@@H](C)[C@@H](O)[C@@H](C)[C@H](OC(C)=O)[C@@H]1C)C4=O [RIFABUTIN]	Not Active	Not Active	Not Active	Not Active	Not Active	Not Active	Not Active	Not Active	Not Active	Not Active	Not Active		Not Active	Not Active	Not Active				
CC(C)c1nc(CN(C)C(=O)N[C@H](C(=O)N[C@@H](Cc2ccccc2)C[C@H](O)[C@H](Cc2ccccc2)NC(=O)OCc2cncs2)C(C)C)cs1 [RITONAVIR]	Not Active	Not Active	Not Active	Not Active	Not Active	Not Active	Not Active	Not Active	Not Active	Not Active	Not Active		Not Active	Not Active	Not Active				
CC(C)CC(N(C)C)C1(c2ccc(Cl)cc2)CCC1 (stereo unspecified) [SIBUTRAMINE]	Not Active	Not Active	Not Active	Not Active	Not Active	Not Active	Not Active	Not Active	Not Active	Not Active	Not Active		Not Active	Not Active	Not Active				
[H]/N=C(/N)N[C@H]1[C@H](O)[C@@H](O)[C@H](O[C@@H]2O[C@@H](C)[C@](O)(C=O)[C@H]2O[C@@H]2O[C@@H](CO)[C@H](O)[C@@H](O)[C@@H]2NC)[C@@H](N/C(N)=N\[H])[C@@H]1O [STREPTOMYCIN]	Not Active	Not Active	Not Active	Not Active	Not Active	Not Active	Not Active	Not Active	Not Active	Not Active	Not Active		Not Active	Not Active	Not Active				
COc1cc(NS(=O)(=O)c2ccc(N)cc2)nc(OC)n1 [SULFADIMETHOXINE]	Not Active	Not Active	Not Active	Not Active	Not Active	Not Active	Not Active	Not Active	Not Active	Not Active	Not Active		Not Active	Not Active	Not Active				
CC(C)(C)c1ccc(C(O)CCCN2CCC(C(O)(c3ccccc3)c3ccccc3)CC2)cc1 (stereo unspecified) [TERFENADINE]	Not Active		Not Active	Not Active	Not Active	Not Active	Not Active	Not Active	Not Active	Not Active	Not Active		Not Active	Not Active	Not Active				
